How the values were obtained:
[1] = system: regenerated plants of cv. Bobwhite MPB26RH; assay: basal tolerance to IMAZAMOX at the plant rooting stage; format: in vivo, Triticum aestivum; details: all concentrations tested (100-500 nM), 3 weeks
Experimental: The basal tolerance of the donor wheat line cv. Bobwhite MPB26RH to IMAZAMOX® at the plant rooting stage was determined as follows: Scutella of immature zygotic embryos from the donor wheat line were isolated as described previously and placed in 10 cm PETRI™ dishes containing CIM medium. Somatic embryogenic callus was allowed to form by incubating at 24° C. in the dark for 4 weeks. The SEC was transferred to 10 cm PETRI™ dishes containing DRM medium and incubated for 2 weeks at 24° C. under a 16/8 (light/dark) hour photoperiod to allow plant regeneration to take place. Regenerated plants were transferred to 10 cm PETRI™ dishes containing RM medium supplemented with 0, 100, 200, 300, 400, 500 nM IMAZAMOX®, respectively. Twenty regenerated plants were placed in each PETRI™ dish. A total of 60 regenerated plants were tested for basal tolerance response at each IMAZAMOX® concentration. After incubation for 3 weeks at 24° C. under a 16/8 (light/dark) hour photoperiod in a growth room, the root formation response was recorded.

[2] = system: cv. Clearfield Janz (S653/S653) and (N653/N653) plants; assay: basal tolerance/resistance to IMAZAMOX at the plant regeneration stage, modified approach (plant growth); format: in vivo, Triticum aestivum; details: 3 weeks
Experimental: The basal tolerance of the cv. Clearfield Janz (S653/S653) genotype and basal resistance of the cv. Clearfield Janz (N653/N653) genotype to IMAZAMOX® at the plant regeneration stage was determined using a modified approach, as cv. […] Seed for each cv. Clearfield Janz genotype was germinated using the aseptic approach described above for producing wheat mesophyll protoplasts. The germinated seedlings were multiplied in vitro by sub-culturing on multiplication medium. Following multiplication, plants for each genotype were transferred to 10 cm PETRI™ dishes containing plant growth medium (MS+10 μM BA+0.8% agar) supplemented with 0, 100, 300, 600, 900, 1200, 1500 and 3000 nM IMAZAMOX®, respectively. Ten plants were placed in each PETRI™ dish. A total of 30 plants per genotype were tested for basal response at each IMAZAMOX® concentration. After incubation for 3 weeks at 24° C. under a 16/8 (light/dark) hour photoperiod in a growth room, the growth response was recorded. […] This response was similar to that observed for the cv. Bobwhite MPB26RH (S653/S653) genotype. In contrast, plant growth for the cv.

[3] = system: protoplasts of SEC-derived cell suspension culture of cv. Bobwhite MPB26RH; assay: basal tolerance to IMAZAMOX of protoplast agarose bead-type cultures (calli growth); format: cell-based, Triticum aestivum; details: 2 weeks
Text: IMAZAMOX® selection conditions are optimized using protoplasts derived from somatic embryogenic callus (SEC)-derived cell suspension culture of the wheat line cv. Bobwhite MPB26RH. While protoplasts derived from Bobwhite MPB26RH are non-totipotent (i.e., cannot be used to regenerate entire plants), the selection conditions established for enriching for events expressing the AHAS (653N) mutation are expected to be transferable to any protoplast-based transformation system based on a totipotent wheat genotype, which those in the art would recognize. The experiments conducted establish the basal tolerance of the wild-type donor wheat line cv. Bobwhite MPB26RH (S653/S653 genotype, which confers susceptibility to imidazolinones) to IMAZAMOX®. The use of IMAZAMOX® selection conditions stronger than basal tolerance will strongly enrich for transformed cells expressing the AHAS (S653N) mutation.
Further transformation methods are applicable. For example a cell suspension culture for wheat line cv. Bobwhite MPB26RH can be established. Somatic embryogenic callus (SEC) is induced from immature zygotic embryos of wheat line cv. […]
The basal tolerance of wheat line cv. Bobwhite MPB26RH to IMAZAMOX® is determined by incubating the agarose bead-type cultures in media supplemented with 0, 50, 100, 200, 400 and 600 nM IMAZAMOX® and assessing the rate of calli growth after 2 weeks.

COCc1cnc(C2=NC(C)(C(C)C)C(=O)N2)c(C(=O)O)c1 (stereo not shown) [IMAZAMOX]
root formation compared to untreated samples [1]: severely restricted
concentration above which plant growth was strongly suppressed ([2]; cv. Clearfield Janz (N653/N653)): exceeded 2,000 nM
plant growth compared to untreated samples ([2]; cv. Clearfield Janz (S653/S653), medium containing at least 200 nM): severely reduced
concentrations that impede calli development [3]: higher than 200 nM

Reference: US10501748B2, “Methods and compositions for integration of an exogenous sequence within the genome of plants” (Dow AgroSciences LLC, priority 2013, dated 2019)
